Measured values published in patent US7807138B2, “Biomarkers of metabolic responses to hepatic drugs” (Metabolon, Inc., priority 2006, dated 2010).
Marks after values point to notes of the source that are not given here.

What was measured:
rat liver [1] = assay: GC-MS metabolomics of liver from rats dosed with clofibrate; assay type: in vivo; details: 250 mg/kg/d
Description: In one embodiment, the hepatotoxicant is clofibrate. Clofibrate or vehicle is administered orally (0, 50, 250 mg/kg/d) to groups of 6 rats and serum and livers are collected 6 and 24 h after either a single or 14 daily doses. Global biochemical profiles are determined by LC-MS and GC-MS and components highly perturbed by clofibrate exposure are identified by the methods described above. […] Rats (6 per group) were dosed by gavage with vehicle, 50 or 250 mg/kg clofibrate per day for 1 (single dose) or 14 days (repeated dose). These groups are referred to as “day 1” and ‘day 14 (d 1 and d14).” Liver and serum were collected at 6 and 24 h post-dosing in the day 1 and day 14. In detail, a single dose of clofibrate or vehicle was administered by gavage (0, 50 and 250 mg/kg) to groups of 18 male Sprague Dawley rats at 11 wks age. Six rats per dose group were euthanized at 6 and 24 h post-dose. Serum (for metabolomics and alanine aminotransferase (ALT), and aspartate aminotransferase (AST)), liver lobes (for histology), and frozen liver and urine (for metabolomics) were collected. Six rats per dose group were placed in metabolism cages for urine collection at −24-0 h, 0-6 h, 6-24 h and 24-48 h. These rats were removed from metabolism cages at 48 h post-dose, for blood and liver collection. The detailed study design is set forth in Chart 1. For GC-MS, liver was extracted with CHCl3:MeOH mixtures. Organic residue was derivitized with BSTFA and dried aqueous residues were derivitized with methoxyamine HCl/BSTFA. Samples were injected with 10:1 split into an Agilent 6890 gas chromatograph. A Leco Pegasus III TOFMS was used. Ions were generated at 70 eV with 3.2 mA ionization current; 25 spectra/s were recorded for 60-800 m/z. Acceleration voltage activated after 180 solvent delay. Detector voltage: 1750 V. Data were processed with Leco ChromaTOF software. Automatic peak detection and mass spectrum deconvolution were performed using 1.33 s peak width. Peaks with S/N less than 20 were rejected. Component identification was accomplished with the NIST 98' MS library and, in some cases, verified with standards. Components with similarity greater than 600 were used for analysis.

rat liver [2] = details: rats, cited from earlier work
rats = assay: Liver enzymes ALT and AST in serum; assay type: in vivo, rat; details: 50 or 250 mg/kg, any groups
Description: (§1) In detail, a single dose of clofibrate or vehicle was administered by gavage (0, 50 and 250 mg/kg) to groups of 18 male Sprague Dawley rats at 11 wks age. Six rats per dose group were euthanized at 6 and 24 h post-dose. Serum (for metabolomics and alanine aminotransferase (ALT), and aspartate aminotransferase (AST)), liver lobes (for histology), and frozen liver and urine (for metabolomics) were collected. Six rats per dose group were placed in metabolism cages for urine collection at −24-0 h, 0-6 h, 6-24 h and 24-48 h. These rats were removed from metabolism cages at 48 h post-dose, for blood and liver collection. The detailed study design is set forth in Chart 1.

rat liver [3] = assay: LC-MS metabolomics of liver from rats dosed with clofibrate; assay type: in vivo; details: LCMS
Description: In one embodiment, the hepatotoxicant is clofibrate. Clofibrate or vehicle is administered orally (0, 50, 250 mg/kg/d) to groups of 6 rats and serum and livers are collected 6 and 24 h after either a single or 14 daily doses. Global biochemical profiles are determined by LC-MS and GC-MS and components highly perturbed by clofibrate exposure are identified by the methods described above. […] Rats (6 per group) were dosed by gavage with vehicle, 50 or 250 mg/kg clofibrate per day for 1 (single dose) or 14 days (repeated dose). These groups are referred to as “day 1” and ‘day 14 (d 1 and d14).” Liver and serum were collected at 6 and 24 h post-dosing in the day 1 and day 14. In detail, a single dose of clofibrate or vehicle was administered by gavage (0, 50 and 250 mg/kg) to groups of 18 male Sprague Dawley rats at 11 wks age. Six rats per dose group were euthanized at 6 and 24 h post-dose. Serum (for metabolomics and alanine aminotransferase (ALT), and aspartate aminotransferase (AST)), liver lobes (for histology), and frozen liver and urine (for metabolomics) were collected. Six rats per dose group were placed in metabolism cages for urine collection at −24-0 h, 0-6 h, 6-24 h and 24-48 h. These rats were removed from metabolism cages at 48 h post-dose, for blood and liver collection. The detailed study design is set forth in Chart 1. Samples were extracted with 20% acetonitrile, then were evaporated and re-constituted in distilled water. For the liver, the left lobe was selected for metabolomic analysis. LC-MS was performed in positive and negative electrospray ionization modes on Bruker time of flight (TOF) instruments, using Icoria™ proprietary HPLC methods and picking and alignment programs. Samples were randomly placed in wells on 96-well plates, keeping d 1 and d 14 samples on separate plates. Between 54 and 72 samples plus quality control samples were run on each plate. Pre- and post-flight instrument checks were carried out. Thereafter, data integrity checks were performed to detect any errors related to our Laboratory Information Management System (LIMS) system, labeling of samples, and missing or extraneous information. […] Metabolites associated with LC-MS components were putatively identified using our proprietary database of mammalian metabolites as well as external sources of metabolic information.

rat liver [4] = assay: Liver histology; assay type: in vivo
Description: as §1, with “In detail, a single dose of clofibrate or vehicle was administered by gavage (0, 50 and 250 mg/kg) to groups of 18 male Sprague Dawley rats at 11 wks age.” left out

[5] = 50 mg/kg/d for 14 days, 6 H after administration
[6] = 50 mg/kg/d for 14 days, 24 H after administration
[7] = 250 mg/kg/d for 14 days, 6 H after administration
[8] = 250 mg/kg/d for 14 days, 24 H after administration

CCOC(=O)C(C)(C)Oc1ccc(Cl)cc1 [Clofibrate, ethyl-p-chloro-phenoxyisobutyrate]
1-Mono linoleoylglycerol fold change (rat liver [1]; DAY 1, 6 H): 1.11*** fold change
1-Mono oleoylglycerol fold change (rat liver [1]; DAY 1, 6 H): 0.98* fold change
1-Mono palmitoylglycerol fold change (rat liver [1]; DAY 1, 6 H): 0.91** fold change
2-Mono oleoylglycerol fold change (rat liver [1]; DAY 1, 6 H): 1.12*** fold change
Cholesterol fold change (rat liver [1]; DAY 1, 6 H): 1.34*** fold change
Glucose (aq) fold change (rat liver [1]; DAY 1, 6 H): 0.29* fold change
Glycine fold change (rat liver [1]; DAY 1, 6 H): 2.69** fold change
Lactic acid fold change (rat liver [1]; DAY 1, 6 H): 1.56** fold change
Linoleic acid fold change (rat liver [1]; DAY 1, 6 H): 0.97* fold change
Palmitate fold change (rat liver [1]; DAY 1, 6 H): 0.95*** fold change
Stearate fold change (rat liver [1]; DAY 1, 6 H): 1.07* fold change
1-Mono stearoylglycerol fold change (rat liver [1]; DAY 1, 24 H): 17.14** fold change
Glycerol 1(3)-phosphate fold change (rat liver [1]; DAY 1, 24 H): 2.56* fold change
Glycine fold change (rat liver [1]; DAY 1, 24 H): 3.42* fold change
L-Aspartic acid fold change (rat liver [1]; DAY 1, 24 H): 27.88*** fold change
Lactic acid fold change (rat liver [1]; DAY 1, 24 H): 4.41* fold change
Succinic acid (Butanedioic acid) fold change (rat liver [1]; DAY 1, 24 H): 17.05** fold change
l-Alanine fold change (rat liver [1]; DAY 1, 24 H): 4.74* fold change
1-Mono palmitoylglycerol fold change (rat liver [1]; DAY 14, 6 H): 0.04** fold change
1-Mono stearoylglycerol fold change (rat liver [1]; DAY 14, 6 H): 0.22** fold change
2-Mono stearoylglycerol fold change (rat liver [1]; DAY 14, 6 H): 0.41* fold change
Arachidonic acid fold change (rat liver [1]; DAY 14, 6 H): 0.22*** fold change
Cholesterol fold change (rat liver [1]; DAY 14, 6 H): 1.87** fold change
Malate fold change (rat liver [1]; DAY 14, 6 H): 0.1** fold change
Palmitate fold change (rat liver [1]; DAY 14, 6 H): 0.72** fold change
β-Sitosterol fold change (rat liver [1]; DAY 14, 6 H): 0.37** fold change
Cholesterol fold change (rat liver [1]; DAY 14, 24 H): 0.69** fold change
Docosahexaenoic acid fold change (rat liver [1]; DAY 14, 24 H): 0.58* fold change
Glucose (aq) fold change (rat liver [1]; DAY 14, 24 H): 0.39** fold change
Malate fold change (rat liver [1]; DAY 14, 24 H): 0.33** fold change
β-Sitosterol fold change (rat liver [1]; DAY 14, 24 H): 0.46* fold change
Clofibrate metabolite Propanoic acid, 2-(4-chlorophenoxy)-2-methyl- in liver (rat liver [1]; cell spans the time columns): (not present in control)
Microscopic changes to liver (rat liver [2]; 24 h after a single exposure): no microscopic changes to liver
Liver histopathology (rat liver [2]; after 2 weeks): induced hypertrophy
ALT (rats): not elevated
AST (rats): not elevated
D-Glycerate fold change relative to control (rat liver [3]; [5]): 1.3 fold change
Glycero-3-phosphoethanolamine fold change relative to control (rat liver [3]; [5]): −3.2 fold change
Threonate fold change relative to control (rat liver [3]; [5]): 1.3 fold change
Ornithine fold change relative to control (rat liver [3]; [6]): 1.84 fold change
Threonate fold change relative to control (rat liver [3]; [6]): −1.4 fold change
Various bile acids fold change relative to control (rat liver [3]; [6]): 1.3 fold change
Creatine fold change relative to control (rat liver [3]; [7]): 1.4 fold change
D-Glycerate fold change relative to control (rat liver [3]; [7]): 1.2 fold change
Glutathione fold change relative to control (rat liver [3]; [7]): −1.5 fold change
Glycero-3-phosphoethanolamine fold change relative to control (rat liver [3]; [7]): −7.7 fold change
Hypotaurine fold change relative to control (rat liver [3]; [7]): 1.3 fold change
Ornithine fold change relative to control (rat liver [3]; [7]): 2.3-5.4 fold change
Serine fold change relative to control (rat liver [3]; [7]): 1.3-1.7 fold change
Various bile acids fold change relative to control (rat liver [3]; [7]): 1.4 fold change
Creatine fold change relative to control (rat liver [3]; [8]): 2.1 fold change
Hypotaurine fold change relative to control (rat liver [3]; [8]): 1.3 fold change
Ornithine fold change relative to control (rat liver [3]; [8]): 2.8-10.6 fold change
Serine fold change relative to control (rat liver [3]; [8]): 1.7 fold change
Histology: hepatocellular cytologic alterations (rat liver [4]; after 14 doses at 250 mg/kg/day, all time points): hepatocellular cytologic alterations (indicating loss of glycogen and eosinophilic granular cytoplasm) were noted at all time points
Histology: hepatocellular mitotic figures (rat liver [4]; after a single dose, 50 to 250-mg/kg): dose related increase and severity of hepatocellular mitotic figures
